pIC50: −log10 of the molar value. Where a name gives a salt, the structure may show the parent alone.

Sequence of Recombinant human Mat2a (P31153 whole entry): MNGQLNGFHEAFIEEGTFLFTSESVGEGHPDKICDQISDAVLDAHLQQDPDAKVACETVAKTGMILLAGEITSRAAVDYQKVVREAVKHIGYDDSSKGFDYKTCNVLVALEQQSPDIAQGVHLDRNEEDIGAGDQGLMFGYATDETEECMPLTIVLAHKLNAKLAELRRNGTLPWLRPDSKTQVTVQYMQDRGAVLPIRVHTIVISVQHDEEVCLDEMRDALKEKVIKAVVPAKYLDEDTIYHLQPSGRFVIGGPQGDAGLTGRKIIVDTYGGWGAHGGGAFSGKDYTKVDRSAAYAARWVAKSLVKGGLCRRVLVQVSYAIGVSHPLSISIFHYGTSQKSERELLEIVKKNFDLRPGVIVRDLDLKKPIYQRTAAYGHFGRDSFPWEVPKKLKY

This test has as its target Recombinant human Mat2a (Homo sapiens, UniProt P31153). The test can be described thus: Determination of Mat2A activity (384 well absorbance-based assay, Biomol Green). The class given is biochemical. Conditions: 12.5 nM Mat2A, 100 μM ATP and Methionine, 2% DMSO, 120 minutes at RT, absorbance at 635 nm. Here is the method: Determination of Mat2A activity
Measurement of Mat2A inhibition is performed in 384 well format absorbance-based assay. Recombinant human Mat2a (12.5 nM) and serial diluted compounds in DMSO (range of concentrations from […] to 508 pM) or controls (DMSO) are incubated for 15 minutes at room temperature (RT) in assay buffer containing 50 mM HEPES pH 7.5, 50 mM KCl, 50 mM MgCl2, 0.01% Tween 20 and 10 mM DTT. The reaction is initiated by the addition of the combined substrates ATP and Methionine, each at a final concentration of 100 μM. Final assay condition are 12.5 nM Mat2A, 100 μM ATP and Methionine Substrates and 2% DMSO. After 120 minutes of incubation at RT, the reaction is stopped by the addition of Biomol Green. The absorbance signal is measured at λ=635 nm with a multiplate reader (BMG Pherastar reader or equivalent) after 30 min of equilibration at RT.
What is called pIC50 is the negative decadic logarithm of the IC50, by convention in mol/L. Regarding `COc1c(C#N)cccc1-n1c(=O)nc(N)c2ccc(C(C)C)nc21` [Example 38, 3-(4-amino-7-isopropyl-2-oxopyrido[2,3-d]pyrimidin-1(2H)-yl)-2-methoxybenzonitrile], the negative-log IC50 (pIC50) was more than 7.89.
For `Nc1nc(=O)n(-c2cccnc2Cl)c2cc(OC(F)(F)F)ccc12` [Example 109, 4-amino-1-(2-chloro-3-pyridyl)-7-(trifluoromethoxy)quinazolin-2-one] the value was 7.80.
For `Nc1nc(=O)n(-c2cccnc2Cl)c2nc(C3CC3)ccc12` (single isomer, unassigned) [Example 135, (+)-4-amino-1-(2-chloropyridin-3-yl)-7-cyclopropylpyrido[2,3-d]pyrimidin-2 (1H)-one] the value was more than 7.89.
Consider `Nc1nc(=O)n(-c2cccc3c2OCC3)c2nc(C3CC3)ccc12` [Example 63, 4-amino-7-cyclopropyl-1-(2,3-dihydrobenzofuran-7-yl)pyrido[2,3-d]pyrimidin-2(1H)-one], for which the pIC50 was 7.82.
As to `Nc1nc(=O)n(-c2ccccc2F)c2nc(C3CC3)ccc12` [Example 79, 4-amino-7-cyclopropyl-1-(2-fluorophenyl)pyrido[2,3-d]pyrimidin-2(1H)-one], the negative logarithm of the IC50 (pIC50) was more than 7.89.
In the case of `Nc1nc(=O)n(-c2cccc(OC(F)(F)F)n2)c2nc(C3CC3)ccc12` [Example 163, 4-amino-7-cyclopropyl-1-[6-(trifluoromethoxy)pyridin-2-yl]pyrido[2,3-d]pyrimidin-2-one], the negative logarithm of the IC50 (pIC50) is 7.51.
For `Cc1ncccc1-n1c(=O)nc(N)c2ccc(C3=COCC3)nc21` [Example 41, 4-amino-7-(4,5-dihydrofuran-3-yl)-1-(2-methylpyridin-3-yl)pyrido[2,3-d]pyrimidin-2 (1H)-one] the value was 7.35; for `COc1ccccc1-c1c(=O)nc(N)n2ccc(C(F)(F)F)cc12` [Example 92, 1-amino-4-(2-methoxyphenyl)-6-(trifluoromethyl)-3H-pyrido[1,2-c]pyrimidin-3-one], 7.43.
For `Cc1ncccc1-n1c(=O)nc(N)c2ccc(C(F)(F)F)nc21` [Example 32, 4-amino-1-(2-methylpyridin-3-yl)-7-(trifluoromethyl)pyrido[2,3-d]pyrimidin-2(1H)-one] the value was more than 7.89; for `Cc1ccccc1-n1c(=O)nc(N)c2ccc(OC(F)F)cc21` [Example 144, 4-amino-7-(difluoromethoxy)-1-(o-tolyl)quinazolin-2 (1H)-one], more than 7.89; for `Cc1ccccc1-n1c(=O)nc(N)c2cnc(C3CC3)cc21` [Example 52, 4-amino-7-cyclopropyl-1-(o-tolyl)pyrido[4,3-d]pyrimidin-2(1H)-one], 7.37.
For `Cc1cc(F)ccc1-n1c(=O)nc(N)c2ccc(C3CC3)nc21` [Example 67, 4-amino-7-cyclopropyl-1-(4-fluoro-2-methylphenyl)pyrido[2,3-d]pyrimidin-2-one], the pIC50 is 7.74.
In the case of `Nc1nc(=O)n(-c2cccnc2C(F)(F)F)c2nc(C3CC3)ccc12` [Example 43, 4-amino-7-cyclopropyl-1-(2-(trifluoromethyl)pyridin-3-yl)pyrido[2,3-d]pyrimidin-2(1H)-one], the pIC50 was more than 7.89.
For `COc1ccccc1-n1c(=O)nc(N)c2ccc(-c3ccccc3)nc21` [Example 4, 4-amino-1-(2-methoxyphenyl)-7-phenylpyrido[2,3-d]pyrimidin-2(1H)-one] the value was 7.51.
For `Cc1ncccc1-n1c(=O)nc(N)c2ccc(CC(F)(F)F)cc21` [Example 83, 4-amino-1-(2-methyl-3-pyridyl)-7-(2,2,2-trifluoroethyl)quinazolin-2-one hydrochloride] the value was 7.49; for `CC(C1COC1)n1c(=O)nc(N)c2ccc(C3CC3)nc21` (centres unmarked) [Example 81, 4-amino-7-cyclopropyl-1-[1-(oxetan-3-yl)ethyl]pyrido[2,3-d]pyrimidin-2-one], 7.38.
For `C[C@@H]1OCCC[C@@H]1n1c(=O)nc(N)c2ccc(C3CC3)nc21` (racemic) [Example 121, 4-amino-7-cyclopropyl-1-[(2SR,3SR)-2-methyltetrahydropyran-3-yl]pyrido[2,3-d]pyrimidin-2-one] the value was 7.85; for `COc1ncccc1-n1c(=O)nc(N)c2ccc(C3CC3)nc21` [Example 9, 4-amino-7-cyclopropyl-1-(2-methoxypyridin-3-yl)pyrido[2,3-d]pyrimidin-2(1H)-one], more than 7.89; for `COc1ccc2c(N)nc(=O)n(-c3cccnc3C)c2c1` [Example 39, 4-amino-7-methoxy-1-(2-methylpyridin-3-yl)quinazolin-2(1H)-one], more than 7.89.
Consider `Nc1nc(=O)n(-c2cccc3[nH]ncc23)c2nc(C3CC3)ccc12` [Example 139, 4-amino-7-cyclopropyl-1-(1H-indazol-4-yl)pyrido[2,3-d]pyrimidin-2 (1H)-one], for which the negative logarithm of the IC50 (pIC50) was more than 7.89.
For `CC1COCC1n1c(=O)nc(N)c2ccc(C3CC3)nc21` (centres unmarked) [Example 28, 4-amino-7-cyclopropyl-1-(4-methyltetrahydro-furan-3-yl)pyrido[2,3-d]pyrimidin-2(1H)-one] the value was 7.24; for `Cc1ncccc1-n1c(=O)nc(N)c2ccc(C3CCOC3)nc21` (centres unmarked) [Example 93, 4-amino-1-(2-methylpyridin-3-yl)-7-(tetrahydrofuran-3-yl)pyrido[2,3-d]pyrimidin-2 (1H)-one], 7.57.
For `Cc1ccccc1-n1c(=O)nc(N)c2c(C(N)=O)cc(C3CC3)nc21` [Example 94, 4-amino-7-cyclopropyl-2-oxo-1-(o-tolyl)-1,2-dihydropyrido[2,3-d]pyrimidine-5-carboxamide] the value was 7.13; for `Cc1ccccc1-n1c(=O)nc(N)c2ccc(C(C)(C)C)nc21` [Example 3, 4-amino-7-(tert-butyl)-1-(o-tolyl)pyrido[2,3-d]pyrimidin-2(1H)-one], 7.66.
For `CC(C1CCCO1)n1c(=O)nc(N)c2ccc(C3CC3)nc21` (centres unmarked) [Example 21, 4-amino-7-cyclopropyl-1-(1-(tetrahydrofuran-2-yl)ethyl)pyrido[2,3-d]pyrimidin-2(1H)-one] the value was 7.07; for `Nc1nc(=O)n(-c2cccnc2Cl)c2nc(C3CC3)ccc12` [Example 85, 4-amino-1-(2-chloropyridin-3-yl)-7-cyclopropylpyrido[2,3-d]pyrimidin-2(1H)-one], more than 7.89; for `C[C@H]1OCCC[C@@H]1n1c(=O)nc(N)c2ccc(C3CC3)nc21` [Example 118, 4-amino-7-cyclopropyl-1-((2R,3S)-2-methyltetrahydro-2H-pyran-3-yl)pyrido[2,3-d]pyrimidin-2 (1H)-one], 7.89.
Take `Cc1ccncc1-n1c(=O)nc(N)c2ccc(C3CC3)nc21` [Example 47, 4-amino-7-cyclopropyl-1-(4-methylpyridin-3-yl)pyrido[2,3-d]pyrimidin-2(1H)-one]: the pIC50 was more than 7.89.
For `CCOc1c(C#N)cccc1-n1c(=O)nc(N)c2ccc(C3CC3)nc21` [Example 20, 3-(4-amino-7-cyclopropyl-2-oxopyrido[2,3-d]pyrimidin-1(2H)-yl)-2-ethoxybenzonitrile] the value was 7.82; for `Nc1nc(=O)n(-c2ccc(F)cc2Cl)c2nc(C3CC3)ccc12` [Example 155, 4-amino-1-(2-chloro-4-fluorophenyl)-7-cyclopropylpyrido[2,3-d]pyrimidin-2 (1H)-one], 7.80; for `Nc1nc(=O)n(-c2cccc(F)c2Cl)c2nc(C3CC3)ccc12` (single isomer, unassigned) [Example 116, (+)-4-amino-1-(2-chloro-3-fluorophenyl)-7-cyclopropylpyrido[2,3-d]pyrimidin-2 (1H)-one], more than 7.89.
For `Cc1ccccc1-n1c(=O)nc(N)c2cc(OC(F)F)c(C3CC3)nc21` [Example 113, 4-amino-7-cyclopropyl-6-(difluoromethoxy)-1-(o-tolyl)pyrido[2,3-d]pyrimidin-2-one] the value was 7.85; for `Cc1c(Cl)cccc1-n1c(=O)nc(N)c2ccc(C3CC3)nc21` [Example 129, 4-amino-1-(3-chloro-2-methylphenyl)-7-cyclopropylpyrido[2,3-d]pyrimidin-2-one], more than 7.89.
For `Cc1c(F)cccc1-n1c(=O)nc(N)c2ccc(OC(F)(F)F)cc21` [Example 159, 4-amino-1-(3-fluoro-2-methylphenyl)-7-(trifluoromethoxy)quinazolin-2-one] the value was 7.72; for `Cc1c(C#N)cccc1-n1c(=O)nc(N)c2ccc(C(F)(F)F)nc21` [Example 77, 3-(4-amino-2-oxo-7-(trifluoromethyl)pyrido[2,3-d]pyrimidin-1(2H)-yl)-2-methylbenzonitrile], more than 7.89.
Turning to `Cc1ccccc1-n1c(=O)nc(N)c2c(C#N)cc(C3CC3)nc21` [Example 95, 4-amino-7-cyclopropyl-2-oxo-1-(o-tolyl)-1,2-dihydropyrido[2,3-d]pyrimidine-5-carbonitrile], the negative logarithm of the IC50 (pIC50) was 7.66.
As for `Cc1c(F)cccc1-n1c(=O)nc(N)c2ccc(C3CC3)cc21` [Example 106, 4-amino-7-cyclopropyl-1-(3-fluoro-2-methylphenyl)quinazolin-2-one], the pIC50 was more than 7.89.
For `Nc1nc(=O)n([C@@H]2CCCOC2)c2nc([C@@H]3C[C@H]3F)ccc12` (mixture of isomers) [Example 49, 4-amino-7-[(1SR,2RS)-2-fluorocyclopropyl]-1-[(3R)-tetrahydropyran-3-yl]pyrido[2,3-d]pyrimidin-2-one] the value was 7.85.

(Values after patent US20230227449A1, “AMIDOPYRIMIDONE DERIVATIVES” (Hoffmann-La Roche Inc., priority 2020, published 2023).)
